In patent publication US7601716B2, “Pyridopyrazines and derivatives thereof as ALK and c-Met inhibitors” (Cephalon, Inc., priority 2006, dated 2009) one finds IC50 data, which are given here for 25 compounds.

Some results are limits rather than exact numbers.

As a reminder, the IC50 is the concentration at which inhibition is half-maximal.

Sequence of baculovirus-expressed ALK (Q9UM73 19-1620): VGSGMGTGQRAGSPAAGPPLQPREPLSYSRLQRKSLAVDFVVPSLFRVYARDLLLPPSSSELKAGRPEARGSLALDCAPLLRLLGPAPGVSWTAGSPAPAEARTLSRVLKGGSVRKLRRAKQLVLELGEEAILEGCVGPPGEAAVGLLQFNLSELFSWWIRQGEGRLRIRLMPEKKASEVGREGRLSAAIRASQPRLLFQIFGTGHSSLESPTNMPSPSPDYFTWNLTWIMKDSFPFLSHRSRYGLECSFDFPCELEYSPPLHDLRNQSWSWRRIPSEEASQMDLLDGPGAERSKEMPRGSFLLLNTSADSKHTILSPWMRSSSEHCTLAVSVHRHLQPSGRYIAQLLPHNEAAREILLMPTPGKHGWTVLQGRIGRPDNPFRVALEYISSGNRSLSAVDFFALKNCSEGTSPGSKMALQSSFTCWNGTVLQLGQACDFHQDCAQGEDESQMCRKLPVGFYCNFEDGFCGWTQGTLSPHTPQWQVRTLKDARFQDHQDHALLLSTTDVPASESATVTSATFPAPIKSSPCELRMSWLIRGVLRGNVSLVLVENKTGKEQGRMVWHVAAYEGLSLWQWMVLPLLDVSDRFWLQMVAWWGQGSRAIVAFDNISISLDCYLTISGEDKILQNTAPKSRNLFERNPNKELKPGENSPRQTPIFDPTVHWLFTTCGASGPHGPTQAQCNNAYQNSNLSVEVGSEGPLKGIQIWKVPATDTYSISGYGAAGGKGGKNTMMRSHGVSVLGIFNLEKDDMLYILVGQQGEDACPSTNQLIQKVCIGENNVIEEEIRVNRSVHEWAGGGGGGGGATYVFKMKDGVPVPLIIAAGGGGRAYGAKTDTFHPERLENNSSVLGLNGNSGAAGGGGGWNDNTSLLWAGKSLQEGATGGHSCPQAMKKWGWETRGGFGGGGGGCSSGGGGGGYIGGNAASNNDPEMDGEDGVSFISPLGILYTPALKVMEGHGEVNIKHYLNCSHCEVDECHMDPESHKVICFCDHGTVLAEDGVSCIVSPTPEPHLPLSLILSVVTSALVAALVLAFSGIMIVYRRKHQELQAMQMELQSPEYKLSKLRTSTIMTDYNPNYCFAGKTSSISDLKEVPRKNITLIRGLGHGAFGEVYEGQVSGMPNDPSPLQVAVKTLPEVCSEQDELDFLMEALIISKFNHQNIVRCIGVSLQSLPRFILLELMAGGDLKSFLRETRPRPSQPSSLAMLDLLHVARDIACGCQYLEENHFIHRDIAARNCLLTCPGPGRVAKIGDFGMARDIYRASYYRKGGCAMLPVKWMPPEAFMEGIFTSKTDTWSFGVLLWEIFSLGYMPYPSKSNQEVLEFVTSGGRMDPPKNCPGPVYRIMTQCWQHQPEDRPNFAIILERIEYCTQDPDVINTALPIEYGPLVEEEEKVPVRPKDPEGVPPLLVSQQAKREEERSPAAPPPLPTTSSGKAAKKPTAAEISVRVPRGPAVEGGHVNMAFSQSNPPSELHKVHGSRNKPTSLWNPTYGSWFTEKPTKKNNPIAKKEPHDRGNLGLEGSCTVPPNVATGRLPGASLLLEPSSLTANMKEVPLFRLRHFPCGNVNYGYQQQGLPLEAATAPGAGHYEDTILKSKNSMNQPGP

The experiment has as its target baculovirus-expressed ALK (Homo sapiens, UniProt Q9UM73). Put plainly: ALK Kinase Assay (ELISA/TRF, PLC-γ substrate). Also: 1 µM ATP (Km level). Format: biochemical. The settings on record: read-out: ALK Kinase Inhibition (IC50). How it is done:
Example compounds were tested for their ability to inhibit the kinase activity of baculovirus-expressed ALK using a modification of the ELISA protocol reported for trkA in Angeles, T. S. et al., Anal. Biochem. 1996, 236, 49-55, which is incorporated herein by reference in its entirety. Phosphorylation of the substrate, phospholipase C-gamma (PLC-γ) generated as a fusion protein with glutathione S-transferase (GST) as reported in Rotin, D. et al., EMBO J. 1992, 11, 559-567, which is incorporated herein by reference in its entirety, was detected with a europium-labeled anti-phosphotyrosine antibody and measured by time-resolved fluorescence (TRF). Briefly, each 96-well plate was coated with 100 μL/well of 10 μg/mL substrate (phospholipase C-γ) in Tris-buffered saline (TBS). […] The reaction was initiated by adding enzyme (30 ng/ml ALK) and was allowed to proceed at 37° C. for 15 minutes. Detection of the phosphorylated product was performed by adding 100 μl/well of Eu-N1 labeled PT66 antibody (Perkin Elmer # AD0041). Incubation at 37° C. then proceeded for one (1) hour, followed by addition of 100 μL enhancement solution (Wallac #1244-105). The plate was gently agitated and after thirty minutes, the fluorescence of the resulting solution was measured using the EnVision 2100 (or 2102) multilabel plate reader (Perkin Elmer).
Data analysis was performed using ActivityBase (IDBS, Guilford, UK). IC50 values were calculated by plotting percent inhibition versus log10 of the concentration of compound and fitting to the nonlinear regression sigmoidal dose-response (variable slope) equation in XLFit (IDBS, Guilford, UK).
`O=C(c1cccc(-c2cnc3c(c2)N(Cc2cc(Cl)ccc2C(F)(F)F)CCN3)c1)N1CCC(O)(c2ccc(Cl)cc2)CC1` [Example 309, [4-(4-Chlorophenyl)-4-hydroxypiperidin-1-yl]-(3-{1-[5-Chloro-2-(trifluoromethyl)benzyl]-1,2,3,4-tetrahydropyrido[2,3-b]pyrazin-7-yl}phenyl)methanone]: the IC50 fell in the range of 100 to 1000 nM. For the compound `COc1ccccc1CN(C)C(=O)c1ccc(-c2cnc3c(c2)N(Cc2cc(Cl)ccc2C(F)(F)F)CCN3)cc1` [Example 432, 4-{1-[5-Chloro-2-(trifluoromethyl)benzyl]-1,2,3,4-tetrahydropyrido[2,3-b]pyrazin-7-yl}-N-(2-methoxybenzyl)-N-methylbenzamide], the IC50 was in the range of 100 to 1000 nM. On to `O=C(NCC1CCCO1)c1ccc(-c2cnc3c(c2)N(Cc2cc(Cl)ccc2C(F)(F)F)CCN3)cc1` (stereo not shown) [Example 417, 4-{1-[5-Chloro-2-(trifluoromethyl)benzyl]-1,2,3,4-tetrahydropyrido[2,3-b]pyrazin-7-yl}-N-(tetrahydrofuran-2-ylmethyl)benzamide], for which the IC50 lay in the range of 100 to 1000 nM. Take `COc1ccc(N2CCN(C(=O)c3cccc(-c4cnc5c(c4)N(Cc4cc(Cl)ccc4C(F)(F)F)CCN5)c3)CC2)cc1` [Example 345, (3-{1-[5-Chloro-2-(trifluoromethyl)benzyl]-1,2,3,4-tetrahydropyrido[2,3-b]pyrazin-7-yl}phenyl)-[4-(4-methoxyphenyl)piperazin-1-yl]methanone]: the IC50 was in the range of 100 to 1000 nM. With `O=C(NCc1cccc2ccccc12)c1ccc(-c2cnc3c(c2)N(Cc2cc(Cl)ccc2C(F)(F)F)CCN3)cc1` [Example 409, 4-{1-[5-Chloro-2-(trifluoromethyl)benzyl]-1,2,3,4-tetrahydropyrido[2,3-b]pyrazin-7-yl}-N-naphthalen-1-ylmethylbenzamide] the figure was 1000 to 10000 nM; with `O=C(c1cccc(-c2cnc3c(c2)N(Cc2cc(Cl)ccc2C(F)(F)F)CCN3)c1)N1CCN(c2nccc3occc23)CC1` [Example 324, (3-{1-[5-Chloro-2-(trifluoromethyl)benzyl]-1,2,3,4-tetrahydropyrido[2,3-b]pyrazin-7-yl}phenyl)-(4-furo[3,2-c]pyridin-4-ylpiperazin-1-yl)methanone], 100 to 1000 nM; with `O=C(c1ccc(-c2cnc3c(c2)N(Cc2cc(Cl)ccc2C(F)(F)F)CCN3)cc1)N1CCC(c2c[nH]c3ccccc23)CC1` [Example 376, (4-{1-[5-Chloro-2-(trifluoromethyl)benzyl]-1,2,3,4-tetrahydropyrido[2,3-b]pyrazin-7-yl}phenyl)-[4-(1H-indol-3-yl)piperidin-1-yl]methanone], 100 to 1000 nM. Consider `O=C(NCc1ccccc1Cl)c1ccc(-c2cnc3c(c2)N(Cc2cc(Cl)ccc2C(F)(F)F)CCN3)cc1` [Example 412, N-(2-Chlorobenzyl)-4-{1-[5-chloro-2-(trifluoromethyl)benzyl]-1,2,3,4-tetrahydropyrido[2,3-b]pyrazin-7-yl}benzamide], for which the IC50 lay within 100 to 1000 nM.

For `O=C(c1ccc(-c2cnc3c(c2)N(Cc2cc(Cl)ccc2C(F)(F)F)CCN3)cc1)N1CCN(CC2CCCCC2)CC1` [Example 428, (4-{1-[5-Chloro-2-(trifluoromethyl)benzyl]-1,2,3,4-tetrahydropyrido[2,3-b]pyrazin-7-yl}phenyl)-[4-(cyclohexylmethyl)piperazin-1-yl]methanone], the IC50 was 1000 to 10000 nM. With `O=C(c1cccc(-c2cnc3c(c2)N(Cc2cc(Cl)ccc2C(F)(F)F)CCN3)c1)N1CCOCC1` [Example 341, (3-{1-[5-Chloro-2-(trifluoromethyl)benzyl]-1,2,3,4-tetrahydropyrido[2,3-b]pyrazin-7-yl}phenyl)morpholin-4-ylmethanone], the IC50 lay in the range of 100 to 1000 nM. With `COCCNC(=O)c1ccc(-c2cnc3c(c2)N(Cc2cc(Cl)ccc2C(F)(F)F)CCN3)cc1` [Example 404, 4-{1-[5-Chloro-2-(trifluoromethyl)benzyl]-1,2,3,4-tetrahydropyrido[2,3-b]pyrazin-7-yl}-N-(2-methoxyethyl)benzamide], the IC50 is less than 100 nM.

With `O=C(c1ccc(-c2cnc3c(c2)N(Cc2cc(Cl)ccc2C(F)(F)F)CCN3)cc1)N1CCC2(CC1)C(=O)NCN2c1ccccc1` [Example 380, 8-(4-{1-[5-Chloro-2-(trifluoromethyl)benzyl]-1,2,3,4-tetrahydropyrido[2,3-b]pyrazin-7-yl}benzoyl)-1-phenyl-1,3,8-triaza-spiro[4.5]decan-4-one], the IC50 fell in the range of 100 to 1000 nM. The value for `O=C(NCc1ccc(Cl)cc1)c1cccc(-c2cnc3c(c2)N(Cc2cc(Cl)ccc2C(F)(F)F)CCN3)c1` [Example 349, N-(4-Chlorobenzyl)-3-{1-[5-Chloro-2-(trifluoromethyl)benzyl]-1,2,3,4-tetrahydropyrido[2,3-b]pyrazin-7-yl}benzamide] was 100 to 1000 nM; that for `O=C(c1cccc(-c2cnc3c(c2)N(Cc2cc(Cl)ccc2C(F)(F)F)CCN3)c1)N1CCN(c2ncnc3ccsc23)CC1` [Example 320, (3-{1-[5-Chloro-2-(trifluoromethyl)benzyl]-1,2,3,4-tetrahydropyrido[2,3-b]pyrazin-7-yl}phenyl)-(4-thieno[3,2-d]pyrimidin-4-ylpiperazin-1-yl)methanone] was 100 to 1000 nM.

Consider `CCOC(=O)N1CCC(NC(=O)c2ccc(-c3cnc4c(c3)N(Cc3cc(Cl)ccc3C(F)(F)F)CCN4)cc2)CC1` [Example 389, 4-(4-{1-[5-Chloro-2-(trifluoromethyl)benzyl]-1,2,3,4-tetrahydropyrido[2,3-b]pyrazin-7-yl}benzoylamino)piperidine-1-carboxylic acid ethyl ester], for which the IC50 was 100 to 1000 nM. In the case of `O=C(c1cccc(-c2cnc3c(c2)N(Cc2cc(Cl)ccc2C(F)(F)F)CCN3)c1)N1CCN(c2cccc(Cl)c2)CC1` [Example 357, [4-(3-Chlorophenyl)piperazin-1-yl]-(3-{1-[5-chloro-2-(trifluoromethyl)benzyl]-1,2,3,4-tetrahydropyrido[2,3-b]pyrazin-7-yl}phenyl)methanone], the IC50 fell in the range of 100 to 1000 nM. Regarding `O=C(NCc1cccc(Cl)c1)c1ccc(-c2cnc3c(c2)N(Cc2cc(Cl)ccc2C(F)(F)F)CCN3)cc1` [Example 414, N-(3-Chloro-benzyl)-4-{1-[5-chloro-2-(trifluoromethyl)benzyl]-1,2,3,4-tetrahydropyrido[2,3-b]pyrazin-7-yl}benzamide], the IC50 was 100 to 1000 nM.

Turning to `O=C(NC1Cc2ccccc2C1)c1cccc(-c2cnc3c(c2)N(Cc2cc(Cl)ccc2C(F)(F)F)CCN3)c1` [Example 358, 3-{1-[5-Chloro-2-(trifluoromethyl)benzyl]-1,2,3,4-tetrahydropyrido[2,3-b]pyrazin-7-yl}-N-indan-2-ylbenzamide], the IC50 was in the range of 100 to 1000 nM. Take `O=C(NC1CCc2ccccc21)c1cccc(-c2cnc3c(c2)N(Cc2cc(Cl)ccc2C(F)(F)F)CCN3)c1` (stereo not shown) [Example 343, 3-{1-[5-Chloro-2-(trifluoromethyl)benzyl]-1,2,3,4-tetrahydropyrido[2,3-b]pyrazin-7-yl}-N-indan-1-ylbenzamide]: the IC50 fell in the range of 100 to 1000 nM. Consider `O=C(NCC(c1ccccc1)c1ccccc1)c1ccc(-c2cnc3c(c2)N(Cc2cc(Cl)ccc2C(F)(F)F)CCN3)cc1` [Example 391, 4-{1-[5-Chloro-2-(trifluoromethyl)benzyl]-1,2,3,4-tetrahydropyrido[2,3-b]pyrazin-7-yl}-N-(2,2-diphenylethyl)benzamide], for which the IC50 lay within 100 to 1000 nM. As for `O=C(NCc1ccc(-c2ccccc2)cc1)c1ccc(-c2cnc3c(c2)N(Cc2cc(Cl)ccc2C(F)(F)F)CCN3)cc1` [Example 425, N-Biphenyl-4-ylmethyl-4-{1-[5-Chloro-2-(trifluoromethyl)benzyl]-1,2,3,4-tetrahydropyrido[2,3-b]pyrazin-7-yl}benzamide], the IC50 lay within 1000 to 10000 nM. Regarding `O=C(NCc1ccc(C(F)(F)F)cc1)c1ccc(-c2cnc3c(c2)N(Cc2cc(Cl)ccc2C(F)(F)F)CCN3)cc1` [Example 396, 4-{1-[5-Chloro-2-(trifluoromethyl)benzyl]-1,2,3,4-tetrahydropyrido[2,3-b]pyrazin-7-yl}-N-[4-(trifluoromethyl)benzyl]benzamide], the IC50 is 100 to 1000 nM.

As to `O=C(NCc1csc(-c2ccccc2)n1)c1cccc(-c2cnc3c(c2)N(Cc2cc(Cl)ccc2C(F)(F)F)CCN3)c1` [Example 340, 3-{1-[5-Chloro-2-(trifluoromethyl)benzyl]-1,2,3,4-tetrahydropyrido[2,3-b]pyrazin-7-yl}-N-(2-phenylthiazol-4-ylmethyl)benzamide], the IC50 lay in the range of 100 to 1000 nM. On to `O=C(c1ccc(-c2cnc3c(c2)N(Cc2cc(Cl)ccc2C(F)(F)F)CCN3)cc1)N1CCN(c2nccc3occc23)CC1` [Example 386, (4-{1-[5-Chloro-2-(trifluoromethyl)benzyl]-1,2,3,4-tetrahydropyrido[2,3-b]pyrazin-7-yl}phenyl)-(4-furo[3,2-c]pyridin-4-ylpiperazin-1-yl)methanone], for which the IC50 was in the range of 100 to 1000 nM. For `CS(=O)(=O)c1ccc(CNC(=O)c2cccc(-c3cnc4c(c3)N(Cc3cc(Cl)ccc3C(F)(F)F)CCN4)c2)cc1` [Example 347, 3-{1-[5-Chloro-2-(trifluoromethyl)benzyl]-1,2,3,4-tetrahydropyrido[2,3-b]pyrazin-7-yl}-N-(4-methanesulfonylbenzyl)benzamide], the IC50 lay in the range of 100 to 1000 nM.
